# Data as given in patent publication US11925649B2, “Treatments for diabetic neuropathy” (University of Manitoba, priority 2010, dated 2024).
# Assays:
# [1] = test system: AMP-activated protein kinase (AMPK); test: AMPK expression in DRG of STZ-diabetic mice (Western blot); format: in vivo, mouse; conditions: daily s.c. injections for 8 weeks, lumbar DRG
# Method: (§1) Lumbar DRG were isolated and rinsed in ice-cold solution containing STE buffer (250 mmol/l sucrose, 10 mmol/l Tris-HCl, 1 mmol/l EDTA, pH 7.4), and then homogenized with a polytron homogenizer ([…] GmbH, Switzerland) using 3×7.5 s grinding pulses at 30 s intervals according to the method taught by Chowdhury et al. (2010, Diabetes 59: 1082-1091).
# (§2) Quantitative Western blotting was performed as previously disclosed by Chowdhury et al (2010) and Fernyhough et al. (1999, Diabetes 48: 881-889). DRG homogenates of 5-10 μg of protein were resolved on a 10% SDS-PAGE gel and electroblotted onto nitrocellulose membrane. Blots were then blocked in 5% nonfat milk containing 0.05% Tween-20, rinsed in PBS (pH 7.4) and incubated with the following antibodies: polyclonal anti-phospho AMPK (1:1000, Cell Signaling Technology, Danvers, MA, US), polyclonal anti-PGC-1α (1:1000, Santa Cruz Biotechnology Inc, Santa Cruz, CA, USA) and monoclonal anti-ATP synthase β subunit (1:2000 dilution, Mitosciences, Eugene, OR). Extracellular signal-regulated kinase (ERK; 1:2000, Covance, Princeton, NJ, US) was probed as a loading control (previous studies show this protein to not change level of expression in DRG in diabetes). […]
# [2] = test system: mitochondria from lumbar DRG of STZ-diabetic rats; test: Mitochondrial respiratory chain activity in lumbar DRG of STZ-diabetic rats; format: in vivo, rat; conditions: daily s.c. during last eight weeks, 20 weeks
# Excerpt: The rats were then culled and subsequently the lumbar DRG were isolated and rinsed in ice-cold solution containing STE buffer (250 mmol/l sucrose, 10 mmol/l Tris-HCl, 1 mmol/l EDTA, pH 7.4), and then homogenized with a polytron homogenizer ([…] GmbH, Switzerland) using 3×7.5 s grinding pulses at 30 s intervals according to the method taught by Chowdhury et al. (2010).
# Mitochondrial respiratory chain activity in freshly isolated mitochondria from lumbar DRG of age-matched control, diabetic, and pirenzepine-treated diabetic rats was determined using a Clarke-type electrode (Oroboros Oxygraph-2K; Oroboros Instruments, Innsbruck, Austria) following the method taught by Chowdhury et al. (2005, Biochem Biophys Res Commun. 333: 1139-1145), in the presence of specific substrates and inhibitors of the mitochondrial respiratory chain (FIG. 19). Basal respiration in lumbar DRG mitochondria is stated as respiration at state 4 with energetic substrates, pyruvate and malate (P+M). Coupled respiration at state 3 was induced by addition of ADP. Then, the uncoupled rate was determined by adding the uncoupling agent, carbonylcyanide p-trifluoromethoxyphenylhydrazone (FCCP). Ascorbate (Asc) and N,N,N′,N′-tetramethyl-p-phenylenediamine (TMPD) were then added to determine the capacity of cytochrome c oxidase (complex IV). TMPD is an artificial redox mediator that assists transfer of electrons from ascorbate to cytochrome c.
# [3] = test system: DRG sensory neurons from wildtype mice; test: Neurite outgrowth in sensory neuron cultures from wildtype mice; format: cell-based, mouse; conditions: 1 μM, 24 hr, low dose growth factors
# [4] = test system: mitochondrial respiratory complex I; test: Mitochondrial respiratory complex I activity in DRG of STZ-diabetic mice; format: in vivo, mouse; conditions: daily injections for 8 weeks, lumbar DRG
# Method: (§3) All measurements of enzymatic activities in lumbar DRG preparations were performed spectrophotometrically using a temperature controlled Ultrospec 2100 UV-visible spectrophotometer (Biopharmacia Biotech, Uppsala, Sweden) using the methods taught by Chowdhury et al. (2010). Complex I activity was measured as rotenone-sensitive NADH: cytochrome c reductase activity. Freshly prepared assay buffer (50 mmol/l K-phosphate pH 7.4, 1 mmol/l KCN, 100 μmol/l NADH) and 10 μg protein of DRG homogenate preparation were added to the cuvette and preincubated for 3 min at 25° C. After addition of 100 μmol/l oxidized cytochrome c, the reaction was followed for 2 minutes at 550 nm and then for 2 more minutes after addition of 25 μmol/l rotenone to allow calculation of the rotenone-sensitive Complex I activity. Complex IV activity was measured at 25° C. by monitoring the absorbance decrease of reduced cytochrome c at 550 nm as disclosed by Chowdhury et al. (2000, Clin. Chim. Acta 298: 157-173). […] Activity of the Krebs cycle enzyme, citrate synthase, was determined at 25° C. in medium containing 150 mmol/l Tris-HCl (pH 8.2), 0.02% laurylmaltoside, 0.1 mmol/l dithionitrobenzoic acid and 5 μg protein according to the method of Chowdhury et al (2007, Free Radic. Res. 41: 1116-1124). The reaction was initiated by addition of 100 μmol/l acetyl CoA and changes in absorbance at 412 nm were measured for 1 minute. […]
# [5] = test system: PGC-1α; test: PGC-1α expression in DRG of STZ-diabetic mice (Western blot); format: in vivo, mouse; conditions: daily s.c. injections for 8 weeks, lumbar DRG
# Method: as §1, §2
# [6] = test system: DRG sensory neurons from M1R knockout mice; test: Neurite outgrowth in sensory neuron cultures from M1R knockout mice; format: cell-based, mouse; conditions: 1 μM, 24 hr
# [7] = test system: mitochondrial respiratory complex IV; test: Mitochondrial respiratory complex IV activity in DRG of STZ-diabetic mice; format: in vivo, mouse; conditions: daily injections for 8 weeks, lumbar DRG
# Method: as §3
# [8] = test system: STZ diabetic Swiss Webster mice; test: Restorative subcutaneous injections in diabetic mice; format: in vivo, mouse; conditions: 10 mg/kg daily s.c. from week 14
# Method: Male out-bred Swiss Webster mice were made diabetic with 2 injections of 90 mg/kg STZ on consecutive days. […] The mice were maintained for 14 weeks after STZ injections. […] At 14 weeks, the diabetic mice were separated into two groups. The first was the untreated group of diabetic mice.
# The function of the small sensory neurons in diabetic and non-diabetic groups of mice were assessed at 5 wks, 7 wks, 11 wks, and 14 wks after the STZ injections.
compound,measurement,setting,value
"CN1CCN(CC(=O)N2c3ccccc3C(=O)Nc3cccnc32)CC1 [pirenzepine, 11-[2-(4-methylpiperazin-1-yl)acetyl]-5H-pyrido[2,3-b][1,4]benzodiazepin-6-1]",expression of P-AMPK,[1],restored the expression
same,expression of T-AMPK,[1],restored the expression
same,capacity of cytochrome c oxidase (complex IV) (Asc+TMPD),[2],not significantly different from the non-diabetic controls
same,coupled respiration (P+M+ADP),[2],not significantly different from the non-diabetic controls
same,uncoupled respiration (FCCP),[2],not significantly different from the non-diabetic controls
same,basal respiration rates with pyruvate and malate (P+M),[2]; vs control and diabetic rats,similar
same,neurite outgrowth compared with LD control,[3],2 fold
same,activity of mitochondrial respiratory complex I,[4],restored the deficits
same,expression of PGC-1α,[5],restored the expression
same,neurite outgrowth,[6],did not enhance neurite outgrowth
same,activity of mitochondrial respiratory complex IV,[7],restored the deficits
same,thermal latency,"[8]; 21st week, 7 weeks of treatment",identical to the non-diabetic controls
same,IENF profiles,[8]; at 21 weeks,restored the IENF profiles to approximate those of the non-diabetic control mice
same,thermal latency,[8]; within 4 weeks of treatment (18 weeks),significantly reduced thermal latency
